Test results reported in patent publication US12441717B2, “Crystal form of polycyclic anaplastic lymphoma kinase inhibitor” (SHANDONG XUANZHU PHARMA CO., LTD., priority 2020, dated 2025).
Where “and” joins values, the source holds several entries; their conditions need not be identical. Identical values can stand only once. Blank lines part the entries; values can stand above or below the molecule they belong to.

What was measured:
Type in all cases: physicochemical
[1] = Solubility in buffered salt solutions of different pH (HPLC external standard); settings: for solubility at 24 h: buffered salt solution, 25 °C, thermodynamic from solid
Description: The solubility (mg/mL) of crystal forms A and B and the amorphous form of the compound of formula (1) under different pH conditions were as shown in Table 1.

[2] = Fluidity after universal pulverization (angle of repose, Carr's index, electrostatic phenomenon); settings: for Angle of repose / Carr's index % / ρbulk / ρtapped: after universal pulverization
Protocol: The amorphous form and crystal forms A and B of the compound of formula (1) were treated by universal pulverization.
The fluidity of the crystal form could be characterized by the angle of repose and the Carr's index. It was generally believed that the smaller the angle of repose and the Carr's index, the better the fluidity.

[3] = Stability study (high temperature, high humidity, light): properties, related substances, moisture, XRD; settings: for Stability under high temperature, high humidity and light conditions (conclusion): overall conclusion of the stability study
Protocol: 2.1 Study Conditions for Crystal Form B of the Compound of Formula (1): • Placed at 105° C. for 5 days, left open, and sampled and tested on days 1 and 5; • placed at 60° C. for 10 days, left open, and sampled and tested on days 5 and 10; • placed under 25° C. RH 92.5% conditions for 10 days, left open, and sampled and tested on days 5 and 10; • under light conditions, using open and closed conditions (polyethylene bag+composite film bag), and sampling and testing when illumination requirements were met; and • placed under 40° C. RH 75% conditions for 1 month, left open, and sampled and tested on day 10 and after 1 month.
2.2 Study Conditions for Crystal Form a of the Compound of Formula (1): • Placed at 105° C. for 5 days, left open, and sampled and tested on days 1 and 5; • placed at 60° C. for 10 days, left open, and sampled and tested on days 5 and 10; • placed under 25° C. RH 92.5% conditions for 10 days, left open, and sampled and tested on days 5 and 10; • under light conditions, left open, and sampled and tested when illumination requirements were met; and • placed under 40° C. RH 75% conditions for 10 days, left open, and sampled and tested on days 5 and 10.
2.3 Study Conditions for the Amorphous Form of the Compound of Formula (1): • Placed at 60° C. for 10 days, left open, and sampled and tested on day 10; placed under 25° C. RH 92.5% conditions for 10 days, left open, and sampled and tested on day 10; and • under light conditions, using open and closed conditions (polyethylene bag+composite film bag), and sampling and testing when illumination requirements were met.
Illumination requirements: ICH Q1B Stability Test: Photostability Testing of New Drug Substances and formulation.
Determination of related substances: Determination by high performance liquid chromatography in accordance with “Chinese Pharmacopoeia”, 2015 edition, Vol. four, General Principle 0512.
Moisture determination: Determination according to “Chinese Pharmacopoeia”, 2015 edition, vol. four, General Principle 0832, Moisture Determination Method, First Method (Fischer's method), 2 Coulometric Titration Method.
XRD determination: Determination according to “Chinese Pharmacopoeia”, 2015 edition, vol. four, General Principle 0451 X-ray Diffraction Method—Second Method, Powder X-ray Diffraction Method.

[4] = Moisture absorbability test (Chinese Pharmacopoeia 2015, General Principle 9103); settings: for Moisture absorbability results: wrapped cells end with 'absorbability'
Description: A Test sample was taken and determined according to Chinese Pharmacopoeia, 2015 edition, vol. four, General Principle 9103, Guiding Principles for Drug Moisture Absorbability Test.

[5] = buffered salt solution pH 1.0, shaken at 25° C. for 24 h
[6] = buffered salt solution pH 4.5, shaken at 25° C. for 24 h
[7] = Day 0, coulometric Fischer titration
[8] = Day 0, related substances by HPLC
[9] = Day 5, at 25° C. RH 92.5%, open
[10] = Day 10, at 25° C. RH 92.5%, open
[11] = Light - closed (polyethylene bag+composite film bag), ICH Q1B illumination
[12] = Light - closed, ICH Q1B illumination
[13] = Light - open, ICH Q1B illumination
[14] = Light - open, pattern compared with day 0
[15] = buffered salt solution pH 6.8, shaken at 25° C. for 24 h
[16] = buffered salt solution pH 7.4, shaken at 25° C. for 24 h

- Solubility [1, 5]: 19800 µg/mL
- Solubility [1, 6]: 22 µg/mL
- solubility at 24 h ([1]; pH 6.8, aqueous buffer, buffered salt solution pH 6.8, shaken at 25° C. for 24 h): 13 µg/mL
- solubility at 24 h ([1]; pH 7.4, aqueous buffer, buffered salt solution pH 7.4, shaken at 25° C. for 24 h): 10 µg/mL
- Electrostatic phenomenon after pulverization [2]: no electrostatic phenomenon
- Angle of repose [2]: 45.8 °
- Carr's index % [2]: 30%
- ρbulk [2]: 0.477 g/mL
- ρtapped [2]: 0.683 g/mL
- Moisture % ([3]; 1 M, at 40° C. RH 75%, open): 0.39%
- Overall related % ([3]; 1 M, at 40° C. RH 75%, open): 0.11%
- Properties ([3]; 1 M, at 40° C. RH 75%, open): Off-white crystalline
- Moisture % [3, 7]: 0.38% and 0.27%
- Overall related % [3, 8]: 0.09% and 0.10%
- Moisture % ([3]; Day 1, at 105° C., open): 0.34%
- Overall related % ([3]; Day 1, at 105° C., open): 0.10%
- Properties ([3]; Day 1, at 105° C., open): Off-white crystalline
- Moisture % [3, 9]: 0.37%
- Overall related % [3, 9]: 0.07%
- Properties [3, 9]: Off-white crystalline
- Moisture % ([3]; Day 5, at 60° C., open): 0.26%
- Overall related % ([3]; Day 5, at 60° C., open): 0.08%
- Properties ([3]; Day 5, at 60° C., open): Off-white crystalline
- Moisture % ([3]; Day 5, at 105° C., open): 0.37%
- Overall related % ([3]; Day 5, at 105° C., open): 0.08%
- Properties ([3]; Day 5, at 105° C., open): Off-white crystalline
- Moisture % [3, 10]: 0.43%
- Overall related % [3, 10]: 0.10%
- Properties [3, 10]: Off-white crystalline
- Moisture % ([3]; Day 10, at 40° C. RH 75%, open): 0.42%
- Overall related % ([3]; Day 10, at 40° C. RH 75%, open): 0.09%
- Properties ([3]; Day 10, at 40° C. RH 75%, open): Off-white crystalline
- Moisture % ([3]; Day 10, at 60° C., open): 0.45%
- Overall related % ([3]; Day 10, at 60° C., open): 0.10%
- Properties ([3]; Day 10, at 60° C., open): Off-white crystalline
- Properties [3, 11]: Off-white crystalline
- Moisture % [3, 12]: 0.41%
- Overall related % [3, 12]: 0.10%
- Moisture % [3, 13]: 0.21%
- Overall related % [3, 13]: 0.54%
- Properties [3, 13]: Yellow powder
- XRD [3, 14]: Same as day 0
- Stability under high temperature, high humidity and light conditions (conclusion) [3]: relatively stable
- Hygroscopic weight gain (%) [4]: 0.11%
- Moisture absorbability results [4]: no or almost no moisture absorbability
Compound: Cc1cc(Nc2ncc(Cl)c(Nc3ccccc3S(=O)(=O)C(C)C)n2)c2c(c1C1CCNCC1)OCCO2 [Crystal form B, 5-chloro-N^4-(2-(isopropylsulfonyl)phenyl)-N^2-(7-methyl-8-(piperidin-4-yl)-2,3-dihydrobenzo[b][1,4]dioxin-5-yl)pyrimidine-2,4-diamine]

- Solubility [1, 5]: 11200 µg/mL
- Solubility [1, 6]: 17 µg/mL
- Solubility [1, 15]: 10 µg/mL
- Solubility [1, 16]: 8.7 µg/mL
- Electrostatic phenomenon after pulverization [2]: serious electrostatic phenomenon
- Angle of repose [2]: 50.6 °
- Properties ([3]; Day 0): Off-white powder
- Moisture % [3, 7]: 0.92%
- Overall related % [3, 8]: 0.84%
- Moisture % [3, 10]: 6.9%
- Overall related % [3, 10]: 0.90%
- Properties [3, 10]: Off-white powder
- XRD ([3]; Day 10, at 25° C. RH 92.5%, open, pattern compared with day 0 (wrapped cell reads 'same as day 0')): Same as day 0
- Moisture % ([3]; Day 10, at 60° C., open): 0.69%
- Overall related % ([3]; Day 10, at 60° C., open): 1.78%
- Properties ([3]; Day 10, at 60° C., open): Light yellow powder
- XRD ([3]; Day 10, at 60° C., open, pattern compared with day 0 (wrapped cell reads 'same as day 0')): Same as day 0
- Properties [3, 11]: Off-white powder
- Moisture % [3, 12]: 0.62%
- Overall related % [3, 12]: 0.88%
- XRD ([3]; Light - closed, pattern compared with day 0 (wrapped cell reads 'same as day 0')): Same as day 0
- Moisture % [3, 13]: 2.3%
- Overall related % [3, 13]: 10.19%
- Properties [3, 13]: Light yellow powder
- XRD [3, 14]: Same as day 0
- Stability under high temperature, high humidity and light conditions (conclusion) [3]: unstable
- Hygroscopic weight gain (%) [4]: 2.8%
- Moisture absorbability results [4]: Having moisture
Compound: Cc1cc(Nc2ncc(Cl)c(Nc3ccccc3S(=O)(=O)C(C)C)n2)c2c(c1C1CCNCC1)OCCO2 [Amorphous form, 5-chloro-N^4-(2-(isopropylsulfonyl)phenyl)-N^2-(7-methyl-8-(piperidin-4-yl)-2,3-dihydrobenzo[b][1,4]dioxin-5-yl)pyrimidine-2,4-diamine]

- Solubility [1, 6]: 2 µg/mL
- Solubility [1, 15]: Not detected
- Solubility [1, 16]: Not detected
- solubility at 24 h ([1]; pH 1, simulated gastric fluid, buffered salt solution pH 1.0, shaken at 25° C. for 24 h): 16900 µg/mL
- Electrostatic phenomenon after pulverization [2]: no obvious electrostatic phenomenon
- Angle of repose [2]: 53 °
- Carr's index % [2]: 45%
- ρbulk [2]: 0.35 g/mL
- ρtapped [2]: 0.63 g/mL
- Properties ([3]; Day 0): Off-white powder
- Moisture % [3, 7]: 0.25%
- Overall related % [3, 8]: 0.64%
- Moisture % ([3]; Day 1, at 105° C., open): 0.18%
- Overall related % ([3]; Day 1, at 105° C., open): 0.78%
- Properties ([3]; Day 1, at 105° C., open): Off-white powder
- Moisture % [3, 9]: 0.23%
- Overall related % [3, 9]: 0.69%
- Properties [3, 9]: Off-white powder
- Moisture % ([3]; Day 5, at 40° C. RH 75%, open): 0.23%
- Overall related % ([3]; Day 5, at 40° C. RH 75%, open): 0.79%
- Properties ([3]; Day 5, at 40° C. RH 75%, open): Off-white powder
- Moisture % ([3]; Day 5, at 60° C., open): 0.17%
- Overall related % ([3]; Day 5, at 60° C., open): 0.81%
- Properties ([3]; Day 5, at 60° C., open): Off-white powder
- Moisture % ([3]; Day 5, at 105° C., open): 0.17%
- Overall related % ([3]; Day 5, at 105° C., open): 1.6%
- Properties ([3]; Day 5, at 105° C., open): Off-white powder
- Moisture % [3, 10]: 0.17%
- Overall related % [3, 10]: 0.78%
- Properties [3, 10]: Off-white powder
- Moisture % ([3]; Day 10, at 40° C. RH 75%, open): 0.15%
- Overall related % ([3]; Day 10, at 40° C. RH 75%, open): 0.89%
- Properties ([3]; Day 10, at 40° C. RH 75%, open): Off-white powder
- Moisture % ([3]; Day 10, at 60° C., open): 0.11%
- Overall related % ([3]; Day 10, at 60° C., open): 1.0%
- Properties ([3]; Day 10, at 60° C., open): Off-white powder
- Moisture % [3, 13]: 0.23%
- Overall related % [3, 13]: 1.9%
- Properties [3, 13]: Light yellow powder
- XRD [3, 14]: Same as day 0
- Stability under high temperature, high humidity and light conditions (conclusion) [3]: relatively stable
- Hygroscopic weight gain (%) [4]: 0.08%
- Moisture absorbability results [4]: no or almost no moisture absorbability
Compound: Cc1cc(Nc2ncc(Cl)c(Nc3ccccc3S(=O)(=O)C(C)C)n2)c2c(c1C1CCNCC1)OCCO2 [Crystal form A, 5-chloro-N^4-(2-(isopropylsulfonyl)phenyl)-N^2-(7-methyl-8-(piperidin-4-yl)-2,3-dihydrobenzo[b][1,4]dioxin-5-yl)pyrimidine-2,4-diamine]
